Measurements taken from patent US20240216357A1 (SICHUAN HUIYU PHARMACEUTICAL CO., LTD., priority 2021, published 2024).
Where a name gives a salt, the structure may show the parent alone. Read-outs that look alike come from different tables or passages of the source.

Columns and labels:
NCI-H1417 cells = assay: In vitro cell proliferation detection (CellTiter-Glo, 7 days); format: cell-based; settings: Homo sapiens, 168 h; NCI-H1417 cells, 7 days, CellTiter-Glo; read-out: NCI-H1417 proliferation inhibition IC50
[1] = target: voltage-gated potassium ion channel hERG (Homo sapiens (Human), UniProt Q12809); assay: hERG inhibition test (manual patch-clamp)
LSD1 = LSD1 (Homo sapiens (Human), UniProt O60341); assay: LSD1 enzyme activity detection (HTRF); format: biochemical; settings: read-out: Inhibition of enzymatic activity of LSD1 IC50
[2] = read-out: hERG IC50, manual patch-clamp

voltage-gated potassium ion channel hERG, sequence (Q12809 whole entry): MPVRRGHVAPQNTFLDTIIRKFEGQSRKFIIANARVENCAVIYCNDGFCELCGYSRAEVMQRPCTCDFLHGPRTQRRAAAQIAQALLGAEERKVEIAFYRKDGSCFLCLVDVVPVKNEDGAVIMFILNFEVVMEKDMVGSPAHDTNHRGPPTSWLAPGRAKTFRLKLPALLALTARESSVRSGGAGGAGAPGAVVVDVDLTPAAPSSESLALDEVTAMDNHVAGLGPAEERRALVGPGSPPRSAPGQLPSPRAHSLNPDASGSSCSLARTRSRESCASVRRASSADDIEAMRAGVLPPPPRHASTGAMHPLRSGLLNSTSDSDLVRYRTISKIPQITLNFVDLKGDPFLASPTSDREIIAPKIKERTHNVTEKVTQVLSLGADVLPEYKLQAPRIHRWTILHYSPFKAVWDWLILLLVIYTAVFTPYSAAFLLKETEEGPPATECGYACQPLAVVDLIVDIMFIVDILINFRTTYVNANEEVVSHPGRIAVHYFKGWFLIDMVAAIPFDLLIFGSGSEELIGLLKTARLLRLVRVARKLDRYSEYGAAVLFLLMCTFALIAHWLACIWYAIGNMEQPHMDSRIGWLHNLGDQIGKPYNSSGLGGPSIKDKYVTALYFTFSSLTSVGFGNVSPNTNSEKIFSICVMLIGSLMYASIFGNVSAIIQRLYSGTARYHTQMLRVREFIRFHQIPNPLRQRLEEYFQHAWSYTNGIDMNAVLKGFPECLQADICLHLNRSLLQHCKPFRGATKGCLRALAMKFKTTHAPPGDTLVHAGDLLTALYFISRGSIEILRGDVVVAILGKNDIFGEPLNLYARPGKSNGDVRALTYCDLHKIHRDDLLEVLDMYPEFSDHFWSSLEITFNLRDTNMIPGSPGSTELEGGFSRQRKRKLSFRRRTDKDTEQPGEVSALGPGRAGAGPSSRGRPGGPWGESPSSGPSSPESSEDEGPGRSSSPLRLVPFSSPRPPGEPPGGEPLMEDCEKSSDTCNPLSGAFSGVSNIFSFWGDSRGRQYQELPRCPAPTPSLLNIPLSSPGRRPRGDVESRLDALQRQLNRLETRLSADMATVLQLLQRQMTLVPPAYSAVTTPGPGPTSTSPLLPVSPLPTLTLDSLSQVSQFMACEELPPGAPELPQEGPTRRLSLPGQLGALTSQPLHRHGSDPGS

SMILES | IC50 (NCI-H1417 cells) [nM] | IC50 [1, 2] [nM] | IC50 (LSD1; HTRF, H3K4me1 substrate) [nM] | IC50 (LSD1) [nM] | IC50 [1] [nM]
COc1cc(F)c(-c2c(O)cc(N3CCC(N)CC3)nc2-c2ccc(C#N)c(F)c2)cc1F [Example 41, 4-(6-(4-aminopiperidin-1-yl)-3-(2,5-difluoro-4-methoxyphenyl)-4-hydroxypyridin-2-yl)-2-fluorobenzonitrile hydrochloride] | 7.93 | > 30000 | 22.1 | – | –
CC(C)(O)Cc1ccc(-c2c(-c3ccc(C#N)c(F)c3)nc(N3CCC(N)CC3)n3ccnc23)c(F)c1 [Example 132, 4-(5-(4-aminopiperidin-1-yl)-8-(2-fluoro-4-(2-hydroxy-2-methylpropyl)phenyl)imidazolo[1,2-c]pyrimidin-7-yl)-2-fluorobenzonitrile hydrochloride] | 11.9 | > 30000 | 5.62 | – | –
O=C(NC1CCOCC1)c1cc(CN[C@@H]2C[C@H]2c2ccc(F)cc2)nc(-c2ccc(-n3cccn3)cc2)n1 [Example 233] | 9.36 | 4470 | 7.2 ± 2.3 | – | –
Cc1ccc(-c2c(-c3ccc(C#N)c(F)c3)nc(N3CCC(N)CC3)n3ccnc23)cc1O [Example 136, 4-(5-(4-aminopiperidin-1-yl)-8-(3-hydroxy-4-methylphenyl)imidazolo[1,2-c]pyrimidin-7-yl)-2-fluorobenzonitrile hydrochloride] | 0.176 | > 30000 | 0.06 ± 0.02 | – | –
O=C(c1cc(CN[C@@H]2C[C@H]2c2ccc(F)cc2)nc(-c2ccc(-n3cccn3)cc2)n1)N1CCC(F)(F)CC1 [Example 230] | 3.92 | 4990 | 47.9 | – | –
COc1ccc(-c2c(-c3ccc(C#N)c(F)c3)nc(N3CCC(N)CC3)n3ccnc23)cc1F [Example 117, 4-(5-(4-aminopiperidin-1-yl)-8-(3-fluoro-4-methoxyphenyl)imidazolo[1,2-c]pyrimidin-7-yl]-2-fl uorobenzonitrile hydrochloride] | 3.76 | 7190 | – | 0.46 ± 0.02 | –
N#Cc1ccc(-c2nc(N3CCC(N)CC3)n3ccnc3c2-c2ccc(OC(F)(F)F)c(O)c2)cc1F [Example 133, 4-(5-(4-aminopiperidin-1-yl)-8-(3-hydroxy-4-(trifluoromethoxy)phenyl)imidazolo [1,2-c]pyrimidin-7-yl)-2-fluorobenzonitrile hydrochloride] | 1.04 | 7170 | 0.54 ± 0.32 | – | –
Cc1noc2cc(-c3c(O)cc(N4CCC(N)CC4)nc3-c3ccc(C#N)c(F)c3)c(F)cc12 [Example 26, 4-(6-(4-aminopiperidin-1-yl)-3-(5-fluoro-3-methylbenzo[d]isoxazol-6-yl)-4-hydroxypyridin-2-yl)-2-fluorobenzonitrile] | 7.45 | > 30000 | 3.67 ± 0.72 | – | –
COc1ccc(-c2c(OC(C)C)cc(N3CCC(N)CC3)nc2-c2ccc(C#N)c(F)c2)cc1O [Example 104, 4-(6-(4-aminopiperidin-1-yl)-3-(3-hydroxy-4-methoxyphenyl)-4-isopropoxypyridin-2-yl)-2-fluor obenzonitrile] | 1.76 | – | 0.7 ± 0.02 | – | 6700
COc1cc(N2CCC(N)CC2)nc(-c2ccc(C#N)c(F)c2)c1-c1cc2onc(C)c2cc1F [Example 90, 4-(6-(4-aminopiperidin-1-yl)-3-(5-fluoro-3-methylbenzo[d]isoxazol-6-yl)-4-methoxypyridin-2-yl)-2-fluorobenzonitrile] | 5.34 | 4620 | 7.48 | – | –
COc1ccc(-c2c(OC3CCCC3)cc(N3CCC(N)CC3)nc2-c2ccc(C#N)c(F)c2)cc1O [Example 105, 4-(6-(4-aminopiperidin-1-yl)-4-(cyclopentyloxy)-3-(3-hydroxy-4-methoxyphenyl)pyridin-2-yl)-2-fluorobenzonitrile] | 5.45 | 5600 | 2.3 ± 0.04 | – | –
